Type in all cases: cell-based
One test deals with TMD8. Put plainly: Cell viability (CCK-8) assay. The note with it: Homo sapiens, TMD8; DLBCL, 96 h; read-out: IC50 (μM) TMD8. Here is the method: (§1) The plated at a density of 15,000 cells per well, and each well contained 100 µL of medium. Subsequently, different compounds (MGD-AX, MGD-BX, MGD-CX) were added to each well. […] To evaluate the antiproliferative effects of these compounds, the Cell Counting Kit-8 (CCK-8, #CX007, Epizyme, Shanghai, China) was used. All procedures were carried out in strict accordance with the manufacturer’s instructions (Dojindo Laboratories, Mamoto Ken, Japan).

The next test has as its system SU-DHL-4. Put plainly: Cell viability (CCK-8) assay. The settings on record: Homo sapiens, SU-DHL-4; DLBCL, 96 h; read-out: IC50 (μM) SU-DHL-4. Here is the method:
as §1

In the next test the test system is OPM-2. Put plainly: Cell viability (CCK-8) assay. The note with it: Homo sapiens, OPM-2; MM, 96 h; read-out: IC50 (μM) OPM-2. The protocol: as §1
For a further test, the system named is RPMI-8226. Kind of test: Cell viability (CCK-8) assay. The note with it: Homo sapiens, RPMI-8226; MM, 96 h; read-out: IC50 (μM) RPMI-8226. The protocol:
as §1

The test system of the next test is Ocl-Ly3. Put plainly: Cell viability (CCK-8) assay. The settings on record: for IC50: 96 h, CCK-8. The protocol: as §1
The test system of a further test is U2932. Kind of test: Cell viability (CCK-8) assay. The settings on record: Homo sapiens, U2932; DLBCL, 96 h; read-out: IC50 (μM) U2932. The protocol:
as §1

The next test concerns U937. Kind of test: Cell viability (CCK-8) assay. The settings on record: Homo sapiens, U-937; AML, 96 h; read-out: IC50 (μM) U937. Here is the method: as §1
The test system of another test is KG-1. Kind of test: Cell viability (CCK-8) assay. The settings on record: Homo sapiens, KG-1; AML, 96 h; read-out: IC50 (μM) KG-1. Here is the method:
as §1

The subject of the next test is MUTZ-1. Put plainly: Cell viability (CCK-8) assay. The note with it: AML, 96 h; read-out: IC50 (μM) MUTZ-1. The protocol:
as §1

For test [1], the system named is MV-4-11. Put plainly: Cell viability (CCK-8) assay. The note with it: for IC50: Homo sapiens, MV4-11, 96 h, 96 h, CCK-8. Here is the method:
as §1

The next test has as its system Skm-1. Put plainly: Cell viability (CCK-8) assay. The settings on record: Homo sapiens, SKM-1; AML, 96 h; read-out: IC50 (μM) Skm-1. The protocol: as §1
The subject of test [2] is NCI-H929. Kind of test: Cell viability (CCK-8) assay. The note with it: Homo sapiens, NCI-H929, 96 h. The protocol: as §1
A further test concerns MOLM-13. Put plainly: Cell viability (CCK-8) assay. The settings on record: Homo sapiens, MOLM-13; AML, 96 h; read-out: IC50 (μM) MOLM-13. The protocol:
as §1

The subject of a further test is WSU-DLCL-2. Put plainly: Cell viability (CCK-8) assay. The settings on record: Homo sapiens, WSUDLCL2; DLBCL, 96 h; read-out: IC50 (μM) WSU-DLCL-2. The protocol: as §1
Test [3] relates to MV-4-11. Kind of test: Cell apoptosis assay (Annexin V flow cytometry). The protocol: (§2) Cells (NCI-H929 and MV-4-11) were seeded at a density of 1 × 10^6 cells per well into 6-well dishes. […] Apoptosis was assessed using an Annexin V-FITC kit (#ab14085; Abcam, MA, USA) on a FACS Calibur Flow Cytometer (Becton Dickinson, Franklin Lakes, NJ, USA). For cell cycle analysis, cells were fixed in 75% ethanol (−20°C/overnight), washed with PBS (pH = 7.2–7.4, 1×), treated with RNase A (0.2 mg/mL, 37°C/30 min), stained with PI (10 μg/mL), and analyzed on the same instrument. Finally, the samples were analyzed using a FACS Calibur Flow Cytometer.
Background: A flow cytometer gives signals particle by particle.

The subject of test [4] is NCI-H929. Put plainly: Cell apoptosis assay (Annexin V flow cytometry). The note with it: NCI-H929, 1 and 10 µM. Here is the method:
as §2

A further test relates to CRBN^−/− NCI-H929 cells. Kind of test: Cell apoptosis assay, CRBN knockout cells. The protocol: […] NCI-H929 and MV-4-11 cells were seeded at a density of 1 × 10^6 cells/well in 6-well tissue culture-treated plates. […] On day 7, GFP-positive cells were sorted as single cells into 96-well plates. Isolated single-cell clones were screened via western blot analysis, using wild-type NCI-H929 or MV-4-11 cells as positive controls.
Cells (NCI-H929 and MV-4-11) were seeded at a density of 1 × 10^6 cells per well into 6-well dishes. […] Apoptosis was assessed using an Annexin V-FITC kit (#ab14085; Abcam, MA, USA) on a FACS Calibur Flow Cytometer (Becton Dickinson, Franklin Lakes, NJ, USA). […] Finally, the samples were analyzed using a FACS Calibur Flow Cytometer.

Test [5] relates to control vector NCI-H929 cells. Put plainly: Cell apoptosis assay, control vector cells. Here is the method: […] NCI-H929 and MV-4-11 cells were seeded at a density of 1 × 10^6 cells/well in 6-well tissue culture-treated plates. According to the manufacturer’s protocol (Santa Cruz Biotechnology, Inc, Dallas, TX, USA), CRBN CRISPR/Cas9 knockout Plasmid (#sc-412142), CRBN HDR plasmid (#sc-412142-HDR), UltraCruz® Transfection Reagent (#sc-395739) were pre-mixed in Plasmid Transfection Medium (#sc-108062) at a 1:1:2 mass ratio, and cells were transiently transfected in a 37°C, 5% CO2 incubator. After 72 h of infection, the medium was replaced with complete medium containing 3 μg/mL puromycin for 5–7 days. On day 7, GFP-positive cells were sorted as single cells into 96-well plates. Isolated single-cell clones were screened via western blot analysis, using wild-type NCI-H929 or MV-4-11 cells as positive controls.
as §2

Structures are written as SMILES.

Broadly, the IC50 is the concentration needed to halve the response being measured. For the compound `CN1CCN(Cc2cccc(C(=O)NC3CCC(=O)NC3=O)c2)CC1` (stereo not shown) [MGD-A7, N-(2,6-dioxopiperidin-3-yl)-3-((4-methylpiperazin-1-yl)methyl)benzamide], the IC50 with TMD8 stood at 6.77 µM; in the test on SU-DHL-4 it was 10.3 µM; in the test on OPM-2 it was 0.153 µM; with RPMI-8226, 2.11 µM; in the test on Ocl-Ly3, 2.32 ± 0.22 µM; with U2932, 3.34 µM. The IC50 in the test on U937 was 3.83 µM; with KG-1, 1.24 µM; in the test with MUTZ-1, 13.2 µM; in the test on MV-4-11 [1], 0.59 ± 0.07 µM; with Skm-1, 4.03 µM; in the test on NCI-H929 [2] it was 0.67 ± 0.1 µM. The results for the half-inhibitory concentration (IC50) in the test with MOLM-13 and in the test on WSU-DLCL-2 were 19.3 µM and 3.82 µM, respectively. Moreover, the apoptosis rate turned out to be 22.5% with MV-4-11 [3] (MV-4-11, 1 µM) and 36.6% with MV-4-11 [3] (MV-4-11, 10 µM). Besides, the figures for the “apoptosis (in words)” value (with NCI-H929 [4]; in the test with CRBN^−/− NCI-H929 cells; in test [5]) were “significantly induced apoptosis”, “neither compound elicited apoptosis” and “induced significant apoptosis”, respectively.

As to `CN1CCN(Cc2cccc(C(=O)NC3CCC(=O)NC3=O)c2F)C(=O)C1` (stereo not shown) [MGD-C9, N-(2,6-dioxopiperidin-3-yl)-2-fluoro-3-((4-methyl-2-oxopiperazin-1-yl)methyl)benzamide], the IC50 in the test on TMD8 is 5.03 µM; in the test with SU-DHL-4, 7.37 µM; with OPM-2, 0.0845 µM; with RPMI-8226, 1.23 µM; in the test on Ocl-Ly3 it was 0.81 ± 0.09 µM; in the test with U2932, 1.25 µM. The IC50 amounted to 1.24 µM in the test with U937; 0.33 µM with KG-1; 10.5 µM in the test on MUTZ-1; 0.21 ± 0.02 µM in the test on MV-4-11 [1]; 2.03 µM in the test with Skm-1; 0.26 ± 0.03 µM in the test on NCI-H929 [2]. Also, the values for the concentration for half-maximal inhibition (IC50) in the test on MOLM-13 and with WSU-DLCL-2 were 9.11 µM and 2.24 µM, respectively. Moreover, the “times stronger antiproliferative activity than avadomide” value with Ocl-Ly3 (Ocl-Ly3 cells) was “approximately 20 times”. Also, the “fold higher antiproliferative activity than avadomide” value with MV-4-11 [1] (MV-4-11 cells) is listed as “approximately 4 fold”. Besides, the apoptosis rate with MV-4-11 [3] (MV-4-11, 1 µM) is reported as 26.0%; in the test on MV-4-11 [3] (MV-4-11, 10 µM) it was 40.7%. Also, the “apoptosis (in words)” value in the test with NCI-H929 [4] is listed as “significantly induced apoptosis”; in the test on CRBN^−/− NCI-H929 cells it was “neither compound elicited apoptosis”; in test [5], “induced significant apoptosis”.

Source of the values: publication PMC12494099, “Discovery and Characterization of Novel IKZF1/3 Glue Degraders against Multiple Hematological Cancer Cell Lines” (Oncology Research, 2025).
